Experimental data as given in patent publication US20230029486A1, “A METHOD FOR ENHANCING THE PHARMACOKINETICS OR INCREASING THE PLASMA CONCENTRATION OF METHYL 3-((METHYLSULFONYL)AMINO)-2-(((4-PHENYLCYCLOHEXYL)OXY)METHYL)PIPERIDINE-1-CARBOXYLATE OR A SALT THEREOF WITH AN INHIBITOR OF CYTOCHROME P450” (TAKEDA PHARMACEUTICAL COMPANY LIMITED, priority 2020, published 2023).
Read-outs that look alike come from different tables or passages of the source.

Columns and labels:
[1] = Phase 1 open-label study: single-dose plasma pharmacokinetics of Compound A with and without cobicistat; format: in vivo, human; details: for DNAUCinf112 (Day 12) / DNAUClast112 (Day 12) / DNCmax112 (Day 12): 14 mg Compound A oral + MD 150 mg cobicistat; for DNAUCinf112 (Day 12) / DNAUClast112 (Day 12) / DNCmax112 (Day 12) / DNAUCi nf 112Ratio (Day 12/Day 3) / DNAUCla st 112Ratio (Day 12/Day 3) / DNCma x 112Ratio (Day 12/Day 3) / DNAUCinf112 (Day 3) / DNAUClast112 (Day 3) / DNCmax112 (Day 3): n=15; for DNAUCi nf 112Ratio (Day 12/Day 3) / DNAUCla st 112Ratio (Day 12/Day 3) / DNCma x 112Ratio (Day 12/Day 3): 14 mg oral + cobicistat versus 112 mg oral alone, dose-normalized
Source text: The purpose of this study was to evaluate the effect of cobicistat on Compound A. The primary goal was to evaluate whether cobicistat can boost plasma concentrations of oral Compound A in humans and therefore, can be used in combination with Compound A as part of an oral dose regimen. The magnitude of this intentional drug-drug interaction (DDI) is also quantified. This was a non-randomized, open-label, fixed-sequence study in healthy male and female (women of non-childbearing potential [WONCBP]) subjects. […] Predose blood samples for cobicistat PK were also collected on Days 7, 9, 10, and 11. […] PK blood samples for cobicistat were collected predose on Day 12 and up until 24 hours post cobicistat dosing and at 24-hour post Day 13 cobicistat dosing. Plasma pharmacokinetic parameters of Compound A after oral administration with and without cobicistat as follows • Maximum observed concentration (Cmax). • Area under the concentration-time curve from time 0 to infinity, calculated using the observed value of the last quantifiable concentration (AUCinf). • Area under the concentration-time curve from time 0 to the time of the last quantifiable concentration (AUClast). […] Plasma pharmacokinetic parameters of Compound A after oral administration with and without cobicistat (Cmax, AUCinf and AUClast) were calculated.

[2] = Safety and tolerability of single oral dose of Compound A with and without cobicistat; format: in vivo, human; details: single oral dose of Compound A with steady state cobicistat, healthy adult subjects
Experimental: · To evaluate the safety and tolerability of a single oral dose of Compound A with and without cobicistat.
Safety was assessed by monitoring for adverse events (AEs), vital signs, safety 12-lead electrocardiograms (ECGs), safety laboratory assessments, pulse oximetry, C-SSRS (Columbia Suicide Severity Rating Scale), and physical examinations throughout the study.

[3] = test system: rodent model of narcolepsy; details: cited from earlier work
[4] = test system: healthy mice; details: cited from earlier work
[5] = test system: nonhuman primates; details: cited from earlier work
[6] = intravenous single dose studies, healthy volunteers and NT1 patients; cited from earlier work
[7] = test system: CYP3A; experiment: Midazolam as in vivo probe for human CYP3A activity under cobicistat; details: 0.5 mg midazolam oral with 150 mg cobicistat QD, Day 7 and Day 10, versus 1 mg midazolam alone
Experimental: Midazolam is a benzodiazepine derivative that is exclusively metabolized by the CYP3A enzymatic pathway and therefore, was used as an in vivo probe for human CYP3A activity.
On Day 1, subjects received 1 mg midazolam orally and pharmacokinetic (PK) blood samples for midazolam (and its metabolite 1-hydroxy (1-OH) midazolam) were collected predose and up until 24 hours postdose to establish baseline cytochrome P450 (CYP) 3A activity.
On Days 7 and 10, 0.5 mg midazolam were administered orally (30 minutes after the cobicistat dose) and PK blood for midazolam and 1-OH midazolam were collected on each of these days, predose and up until 24 hours post midazolam dosing.
Blood PK sampling for midazolam and its metabolite (1-hydroxymidazolam): • Study Day 1: predose (prior to midazolam administration), 0.5, 1, 1.5, 2, 4, 6, 8, 12 hours postdose • Study Day 2: 24 hours post Day 1 dosing and prior to start of Compound A IV infusion • Study Day 7: predose (prior to cobicistat and midazolam administration), 0.5, 1, 1.5, 2, 4, 6, 8, 12 hours post midazolam dosing • Study Day 8: 24 hours post Day 7 midazolam dosing and prior to cobicistat administration • Study Day 10: predose (prior to cobicistat and midazolam administration), 0.5, 1, 1.5, 2, 4, 6, 8, 12 hours post midazolam dosing • Study Day 11: 24 hours post Day 10 midazolam dosing and prior to cobicistat administration

[8] = 14 mg Compound A oral + QD 150 mg cobicistat compared to 14 mg IV alone (9-hour IV infusion)
[9] = 14 mg Compound A oral + QD 150 mg cobicistat versus 112 mg oral alone, dose-normalized to 112 mg
[10] = 112 mg Compound A oral alone compared to 14 mg Compound A IV alone
[11] = Geom Mean, dose-normalized to 112 mg
[12] = Geom Mean, 112 mg Compound A oral alone
[13] = Mean, dose-normalized to 112 mg
[14] = Mean, 112 mg Compound A oral alone

## COC(=O)N1CCC[C@H](NS(C)(=O)=O)[C@@H]1CO[C@H]1CC[C@@H](c2ccccc2)CC1 [Compound A, methyl (2R,3S)-3-((methylsulfonyl)amino)-2-(((cis-4-phenylcyclohexyl)oxy)methyl)piperidine-1-carboxylate]
[1]; 14 mg Compound A IV alone
  mean t1/2z: 3.7 h
[1]; 14 mg Compound A oral + QD 150 mg cobicistat
  mean t1/2z: ~ 8 hours
[1]; [8]
  geometric mean dose-normalized AUC∞, increase over IV: 2.8 fold
  geometric mean dose-normalized Cmax, increase over IV: 7.9 fold
[1]; [9]
  increase of geometric LSM AUClast: ~109 fold
  increase of geometric LSM AUC∞: ~109 fold
  increase of geometric LSM Cmax: approximately 50 fold
[1]; 14 mg oral + MD 150 mg cobicistat versus 112 mg oral alone
  dose-normalized Cmax, AUCinf and AUClast of plasma Compound A, Day 12 versus Day 3: much higher
[1]; 112 mg Compound A oral alone
  mean t1/2z: 4.9 h
[1]; [10]
  geometric mean dose-normalized AUC∞, lower than IV: ~97%
  geometric mean dose-normalized Cmax, lower than IV: approximately 84%
[1]; [11]
  DNAUCinf112 (Day 12): 7623 ng*hr/mL/112 mg Compound A
  DNAUClast112 (Day 12): 7504 ng*hr/mL/112 mg Compound A
  DNCmax112 (Day 12): 2253 ng/mL/112 mg Compound A
[1]; Geom Mean
  DNAUCi nf 112Ratio (Day 12/Day 3): 10942%
  DNAUCla st 112Ratio (Day 12/Day 3): 10871%
  DNCma x 112Ratio (Day 12/Day 3): 5028%
[1]; [12]
  DNAUCinf112 (Day 3): 69.67 ng*hr/mL/112 mg Compound A
  DNAUClast112 (Day 3): 69.02 ng*hr/mL/112 mg Compound A
  DNCmax112 (Day 3): 44.81 ng/mL/112 mg Compound A
[1]; [13]
  DNAUCinf112 (Day 12): 8448 ng*hr/mL/112 mg Compound A
  DNAUClast112 (Day 12): 8231 ng*hr/mL/112 mg Compound A
[1]; Mean, dose-normalized to 112 mg, plasma, healthy subjects
  DNCmax112 (Day 12): 2335 ng/mL/112 mg Compound A
[1]; Mean
  DNAUCi nf 112Ratio (Day 12/Day 3): 14349%
  DNAUCla st 112Ratio (Day 12/Day 3): 14385%
  DNCma x 112Ratio (Day 12/Day 3): 8290%
[1]; [14]
  DNAUCinf112 (Day 3): 94.59 ng*hr/mL/112 mg Compound A
  DNAUClast112 (Day 3): 94.21 ng*hr/mL/112 mg Compound A
[1]; Mean, 112 mg Compound A oral alone, plasma, healthy subjects
  DNCmax112 (Day 3): 66.35 ng/mL/112 mg Compound A
[1]; via potent CYP3A inhibition, healthy adult subjects
  systemic exposures of Compound A administered orally, effect of cobicistat: significantly increased
[2]
  safety and tolerability: generally safe and well tolerated

## COC(=O)N1CCCC(NS(C)(=O)=O)C1COC1CCC(c2ccccc2)CC1 (stereo not shown) [methyl 3-((methylsulfonyl)amino)-2-(((4-phenylcyclohexyl)oxy)methyl)piperidine-1-carboxylate]
[3]
  improving wakefulness: significant effects
  reducing cataplexy-like symptoms: significant effects
[4]
  wakefulness: promoted wakefulness
[5]
  wakefulness: promoted wakefulness
[6]
  safety and tolerability: safe and well-tolerated

## Cc1ncc2n1-c1ccc(Cl)cc1C(c1ccccc1F)=NC2 [midazolam]
[7]
  midazolam Cmax, increase with cobicistat: approximately 5 fold
